From patent US20100130725A1, “METHODS FOR CHARACTERIZING MOLECULES” (priority 2008, published 2010)

Legend:
A431 cells = assay: EGF-induced DMR signal in partially quiescent A431 cells (20 hr in 0.1% fetal bovine serum); assay type: cell-based, human; settings: partially quiescent A431, 20 hour starvation in 0.1% fetal bovine serum
From the text: EGFR belongs to the family of receptor tyrosine kinases. EGF binds to and stimulates the intrinsic protein-tyrosine kinase activity of EGFR, initiating a signal transduction cascade, principally involving the MAPK, […] and JNK pathways. Upon EGF stimulation, there are many events leading to mass redistribution in A431 cells—a cell line endogenously over-expressing EGFRs. It is known that EGFR signaling depends on cellular status. As a result, the EGF-induced DMR signals are also dependent on the cellular status. In quiescent cells obtained through 20 hr culturing in 0.1% fetal bovine serum, EGF stimulation leads to a DMR signal with three distinct and sequential phases: (i) a positive phase with increased signal (P-DMR), (ii) a transition phase, and (iii) a decay phase (N-DMR). […]
An Epic® cellular assay was conducted on partially quiescent A431 cells obtained through 1 day culture with serum containing medium followed by 20 hour starvation culturing in a medium containing 0.1% fetal bovine serum. […] Chemical biology and cell biology studies have shown that this EGF-induced DMR signal is primarily linked to the Ras/MAPK pathway, which proceeds through MEK and leads to cell detachment (Fang, Y., et al., (2005) “Characteristics of dynamic mass redistribution of EGF receptor signaling in living cells measured with label free optical biosensors”. Anal. Chem., 77, 5720-5725).

quiescent A431 cells = assay: Epic RWG biosensor DMR assay, agonist mode (primary profile), quiescent A431 cells; assay type: cell-based, human
Experimental: All cell lines were obtained from American Type Cell Culture (Manassas, Va.). The cell culture medium was as follows: Dulbecco's modified Eagle's medium (DMEM) supplemented with 10% fetal bovine serum (FBS), 4.5 g/liter glucose, 2 mM glutamine, and antibiotics for human epidermoid carcinoma A431 and human lung carcinoma A549.
Cells were typically grown using ˜1 to 2×10^4 cells per well at passage 3 to 15 suspended in 50 μl of the corresponding culture medium in the biosensor microplate, and were cultured at 37° C. under air/5% CO2 for ˜1 day. Except for A431, which was subject to ˜20 hr starvation through continuous culture in the serum-free DMEM, the other cell types were directly assayed without starvation. The confluency for all cells at the time of assays was ˜95% to 100%.
Epic® wavelength interrogation system (Corning Inc., Corning, N.Y.) was used for whole cell sensing. This system consists of a temperature-control unit, an optical detection unit, and an on-board liquid handling unit with robotics. The detection unit is centered on integrated fiber optics, and enables kinetic measures of cellular responses with a time interval of ˜15 sec.
The RWG biosensor is capable of detecting minute changes in local index of refraction near the sensor surface. Since the local index of refraction within a cell is a function of density and its distribution of biomass (e.g., proteins, molecular complexes), the biosensor exploits its evanescent wave to non-invasively detect ligand-induced dynamic mass redistribution in native cells. […]
For biosensor cellular assays, molecule solutions were made by diluting the stored concentrated solutions with the HBSS (1× Hanks balanced salt solution, plus 20 mM Hepes, pH 7.1), and transferred into a 384 well polypropylene molecule storage plate to prepare a molecule source plate. […] Both the cell assay plate and the molecule and marker source plate(s) were then incubated in the hotel of the reader system. After ˜1 hr of incubation the baseline wavelengths of all biosensors in the cell assay microplate were recorded and normalized to zero. […]

## epidermal growth factor [EGF]
A431 cells
  DMR signal triggered by EGF: DMR signal with two distinct and sequential phases
Quiescent A431 cells; fully quiescent A431 cells
  EC80 for triggering the DMR signal: ~32 nM
Quiescent A431 cells; fully quiescent A431 cells, EGF 32 nM, average of 32 replicates
  DMR signal triggered by EGF: distinct and robust DMR signal
Quiescent A431 cells; quiescent A431 cells, data not shown
  DMR response as a function of EGF dose: dose-dependent response
